In ChEMBL document CHEMBL1152361, “The application of phosphoramidate ProTide technology to the potent anti-HCV compound 4'-azidocytidine (R1479)” (Bioorg Med Chem Lett, 2009):

These compounds were tested on Hepatitis C virus (assay: Antiviral activity against HCV Con1 GT1b by replicon assay). Details: not given.
Type: functional, organism-based, Hepacivirus hominis

First: C[C@H](NP(=O)(OC[C@@]1(N=[N+]=[N-])O[C@@H](n2ccc(N)nc2=O)[C@H](O)[C@@H]1O)Oc1cccc2ccccc12)C(=O)OCc1ccccc1 (stereo partly specified)
Second: C[C@H](NP(=O)(OC[C@@]1(N=[N+]=[N-])O[C@@H](n2ccc(N)nc2=O)[C@H](O)[C@@H]1O)Oc1ccc2ccccc2c1)C(=O)OCc1ccccc1 (single isomer, unassigned; diastereomer 1)
The EC50 of the first is 4.5-fold lower: 0.95 µM for the first, 4.3 µM for the second.

`CC(C)OC(=O)CNP(=O)(OC[C@@]1(N=[N+]=[N-])O[C@@H](n2ccc(N)nc2=O)[C@H](O)[C@@H]1O)Oc1ccccc1` (stereo partly specified) gave an EC50 of 4.5 µM.
`CC(C)OC(=O)CNP(=O)(OC[C@@]1(N=[N+]=[N-])O[C@@H](n2ccc(N)nc2=O)[C@H](O)[C@@H]1O)Oc1ccccc1` (single isomer, unassigned; Diastereomer 1) was tested, and the EC50 was 15 µM.

Same assay, conditions: Hepatitis C virus, Con1 GT1b

`CC(C)(C)OC(=O)[C@H](Cc1ccccc1)NP(=O)(OC[C@@]1(N=[N+]=[N-])O[C@@H](n2ccc(N)nc2=O)[C@H](O)[C@@H]1O)Oc1ccccc1` (stereo partly specified) and `[N-]=[N+]=N[C@]1(COP(=O)(N[C@@H](Cc2ccccc2)C(=O)OCc2ccccc2)Oc2ccccc2)O[C@@H](n2ccc(N)nc2=O)[C@H](O)[C@@H]1O` (stereo partly specified) are within 1.5-fold of each other in IC50: 6.7 µM for the first, 7.7 µM for the second.

`CCOC(=O)CN(C)P(=O)(OC[C@@]1(N=[N+]=[N-])O[C@@H](n2ccc(N)nc2=O)[C@H](O)[C@@H]1O)Oc1ccccc1` (stereo partly specified) and `CCOC(=O)CC[C@H](NP(=O)(OC[C@@]1(N=[N+]=[N-])O[C@@H](n2ccc(N)nc2=O)[C@H](O)[C@@H]1O)Oc1ccccc1)C(=O)OCC` (stereo partly specified) are within 1.5-fold of each other in IC50: 48 µM for the first, 44 µM for the second.

Compared with `CC(C)(NP(=O)(OC[C@@]1(N=[N+]=[N-])O[C@@H](n2ccc(N)nc2=O)[C@H](O)[C@@H]1O)Oc1ccccc1)C(=O)OCc1ccccc1` (stereo partly specified), `C[C@@H](NP(=O)(OC[C@@]1(N=[N+]=[N-])O[C@@H](n2ccc(N)nc2=O)[C@H](O)[C@@H]1O)Oc1ccccc1)C(=O)OCc1ccccc1` (stereo partly specified) is 4.2-fold lower in EC50: 9.2 µM for the first, 2.2 µM for the second. The second is the more potent here.

Compared with `[N-]=[N+]=N[C@]1(COP(=O)(NCC(=O)OCc2ccccc2)Oc2ccccc2)O[C@@H](n2ccc(N)nc2=O)[C@H](O)[C@@H]1O` (stereo partly specified), `CCOC(=O)[C@H](Cc1ccccc1)NP(=O)(OC[C@@]1(N=[N+]=[N-])O[C@@H](n2ccc(N)nc2=O)[C@H](O)[C@@H]1O)Oc1ccccc1` (stereo partly specified) is 5.2-fold higher in EC50: 2.1 µM for the first, 11 µM for the second.

Going from `Cc1ccccc1OP(=O)(N[C@@H](C)C(=O)OCc1ccccc1)OC[C@@]1(N=[N+]=[N-])O[C@@H](n2ccc(N)nc2=O)[C@H](O)[C@@H]1O` (stereo partly specified) to `COc1ccccc1OP(=O)(N[C@@H](C)C(=O)OCc1ccccc1)OC[C@@]1(N=[N+]=[N-])O[C@@H](n2ccc(N)nc2=O)[C@H](O)[C@@H]1O` (stereo partly specified), the EC50 rises from 1.3 µM to 2.3 µM (1.8-fold).

Compared with `CC(C)C[C@H](NP(=O)(OC[C@@]1(N=[N+]=[N-])O[C@@H](n2ccc(N)nc2=O)[C@H](O)[C@@H]1O)Oc1ccccc1)C(=O)OC(C)C` (stereo partly specified), `CC(C)OC(=O)C(C)(C)NP(=O)(OC[C@@]1(N=[N+]=[N-])O[C@@H](n2ccc(N)nc2=O)[C@H](O)[C@@H]1O)Oc1ccccc1` (stereo partly specified) is lower in EC50: greater than 100 µM for the first, 3.1 µM for the second.

`C[C@H](NP(=O)(OC[C@@]1(N=[N+]=[N-])O[C@@H](n2ccc(N)nc2=O)[C@H](O)[C@@H]1O)Oc1ccccc1)C(=O)Oc1ccccc1` (stereo partly specified) and `CC(C)OC(=O)[C@H](Cc1ccccc1)NP(=O)(OC[C@@]1(N=[N+]=[N-])O[C@@H](n2ccc(N)nc2=O)[C@H](O)[C@@H]1O)Oc1ccccc1` (stereo partly specified) are the same in EC50: 2.9 µM for the first, 2.9 µM for the second.

`CCOC(=O)[C@H](C)NP(=O)(OC[C@@]1(N=[N+]=[N-])O[C@@H](n2ccc(N)nc2=O)[C@H](O)[C@@H]1O)Oc1ccc(C)cc1` (stereo partly specified) and `CCOC(=O)[C@H](CC(C)C)NP(=O)(OC[C@@]1(N=[N+]=[N-])O[C@@H](n2ccc(N)nc2=O)[C@H](O)[C@@H]1O)Oc1ccc(C)cc1` (stereo partly specified) are within 1.5-fold of each other in EC50: 2.9 µM for the first, 4.3 µM for the second.

First: CCOC(=O)[C@@H](NP(=O)(OC[C@@]1(N=[N+]=[N-])O[C@@H](n2ccc(N)nc2=O)[C@H](O)[C@@H]1O)Oc1ccccc1)[C@@H](C)CC (stereo partly specified)
Second: CCOC(=O)[C@H](C)NP(=O)(OC[C@@]1(N=[N+]=[N-])O[C@@H](n2ccc(N)nc2=O)[C@H](O)[C@@H]1O)Oc1ccccc1 (stereo partly specified)
The EC50 of the first is higher: greater than 100 µM for the first, 0.38 µM for the second. The second is the more potent here.

First: C[C@H](NP(=O)(OC[C@@]1(N=[N+]=[N-])O[C@@H](n2ccc(N)nc2=O)[C@H](O)[C@@H]1O)Oc1cccc(Cl)c1)C(=O)OCc1ccccc1 (stereo partly specified)
Second: C[C@H](NP(=O)(OC[C@@]1(N=[N+]=[N-])O[C@@H](n2ccc(N)nc2=O)[C@H](O)[C@@H]1O)Oc1ccc(Cl)cc1)C(=O)OCc1ccccc1 (stereo partly specified)
The EC50 of the first is 1.7-fold lower: 3.7 µM for the first, 6.2 µM for the second.

First: COc1ccc(OP(=O)(N[C@@H](C)C(=O)OCc2ccccc2)OC[C@@]2(N=[N+]=[N-])O[C@@H](n3ccc(N)nc3=O)[C@H](O)[C@@H]2O)cc1 (stereo partly specified)
Second: C[C@H](NP(=O)(OC[C@@]1(N=[N+]=[N-])O[C@@H](n2ccc(N)nc2=O)[C@H](O)[C@@H]1O)Oc1ccc(Cl)c(Cl)c1)C(=O)OCc1ccccc1 (stereo partly specified)
The EC50 of the first is higher: greater than 100 µM for the first, 9.2 µM for the second.

`CCOC(=O)[C@H](C)NP(=O)(OC[C@@]1(N=[N+]=[N-])O[C@@H](n2ccc(N)nc2=O)[C@H](O)[C@@H]1O)Oc1c(OC)cccc1OC` (stereo partly specified) was tested, and the EC50 was 4.1 µM.

Each compound was assayed on Hepatitis C virus (assay: Antiviral activity against HCV Con1 GT1b at 100 uM by replicon assay). Details: not given.
Type: functional, Hepacivirus hominis

Compared with `CC(C)(C)OC(=O)[C@H](Cc1ccccc1)NP(=O)(OC[C@@]1(N=[N+]=[N-])O[C@@H](n2ccc(N)nc2=O)[C@H](O)[C@@H]1O)Oc1ccccc1` (stereo partly specified), `[N-]=[N+]=N[C@]1(COP(=O)(N[C@@H](Cc2ccccc2)C(=O)OCc2ccccc2)Oc2ccccc2)O[C@@H](n2ccc(N)nc2=O)[C@H](O)[C@@H]1O` (stereo partly specified) is higher in inhibition at 100 µM: 84% for the first, 89% for the second.

First: CCOC(=O)CN(C)P(=O)(OC[C@@]1(N=[N+]=[N-])O[C@@H](n2ccc(N)nc2=O)[C@H](O)[C@@H]1O)Oc1ccccc1 (stereo partly specified)
Second: CCOC(=O)CC[C@H](NP(=O)(OC[C@@]1(N=[N+]=[N-])O[C@@H](n2ccc(N)nc2=O)[C@H](O)[C@@H]1O)Oc1ccccc1)C(=O)OCC (stereo partly specified)
The inhibition at 100 µM of the first is lower: 72% for the first, 74% for the second.
